Source: patent US20230323475A1, “TEST METHOD, OF DIVIDING BLASTIC PLASMACYTOID DENDRITIC CELL NEOPLASM (BPDCN) INTO SUBTYPES” (JAPANESE FOUNDATION FOR CANCER RESEARCH, priority 2016, published 2023)

Legend:
Type in all cases: cell-based
[1] = test system: BPDCN cell line CAL-1 (MYC+BPDCN); assay: Cell survival rate (Cell Titer-Glo cell growth assay), CAL-1; details: for survival rate of the CAL-1 cell line: CAL-1, 48 hours after addition of the BET bromodomain-selective inhibitor
Description: (§1) The cell lines used were 4 lines: BPDCN cell lines CAL-1 (MYC^+BPDCN; Non Patent Literature 11; obtained from Nagasaki University) and PMDC05 (MYC-BPDCN; Non Patent Literature 12; obtained from Niigata University), a positive control plasma cell neoplasm KMS12PE (obtained from JCRB Cell Bank) having the increased expression of MYC, and a negative control leukemia cell line K562 (obtained from JCRB Cell Bank) in which no MYC gene rearrangement was seen.
(§2) The CAL-1, PMDC05, or KMN12PE cells at 4000 cells/well or K562 at 1000 cells/well were inoculated to 96-well cell culture plates. […] The cell survival rates were measured using a cell growth assay kit using CTG reagent (Cell Titer-Glo, manufactured by Promega Corp.).
(§3) Aurora kinase inhibitors, albeit not agents directly suppressing MYC expression, were analyzed for their effects in the present invention. […] Each inhibitor was added from 1 nm to 10000 nM to the medium of the cells of each line. 48 hours later, the survival rates of these cells were analyzed (FIG. 10).
(§4) Each inhibitor was added in the concentration of 1 nM to 10000 nM to the 4 cell lines described above. The survival rates of these cells were analyzed 48 hours later (FIG. 11).

[2] = test system: BPDCN cell line PMDC05 (MYC-BPDCN); assay: Cell survival rate (Cell Titer-Glo cell growth assay), PMDC05; details: PMDC05, 48 hours, FIG. 6
Description: as §1, §2, §3, §4

[3] = test system: negative control leukemia cell line K562; assay: Cell survival rate (Cell Titer-Glo cell growth assay), K562; details: 48 hours, JQ1 at 1000 nM or more, FIG. 6
Description: as §1, §2

[4] = test system: MYC expression in CAL-1 cells; assay: MYC expression over time by immunostaining, CAL-1; details: FIG. 7
Protocol: The ratios of MYC-positive cells at the time of JQ1 addition (0 hours), 6 hours later, 24 hours later, and 48 hours later were approximately 95%, 60%, 15%, and 0%, respectively. Good correlation was observed between decrease in cell survival rate and decrease in MYC expression level.

[5] = test system: MYC expression and PARP cleavage in CAL-1 cells; assay: Western blot for MYC expression and PARP cleavage after JQ1, CAL-1; details: CAL-1, 400 nM JQ1 for 24 hours, compared with untreated cells, FIG. 9
Description: (§5) The primary antibody used was anti-cMyc rabbit monoclonal antibody (manufactured by Abcam plc) and an anti-GAPDH mouse monoclonal antibody (manufactured by Merck Millipore) as control. The secondary antibody used was a HRP-labeled anti-rabbit IgG antibody (donkey, manufactured by Amersham Biosciences Corp.). SuperSignal West Femto Maximum Sensitivity Substrate (manufactured by Pierce/Thermo Fisher Scientific Inc.) was used for detection.
(§6) As mentioned above, it was shown that the cell growth was suppressed by the addition of the BET bromodomain-selective inhibitors to a medium. Next, analysis was conducted on a mechanism underlying the suppression of the cell growth. JQ1 was added to CAL-1, PMDC05, KMS12PE, and K562 cells. Twenty-four hours later, the cells were collected and analyzed by Western blot for MYC expression and PARP cleavage serving as an index for cell death by apoptosis. An anti-PARP antibody was obtained from Cell Signaling Technology, Inc.

[6] = test system: MYC expression and PARP cleavage in KMS12PE cells; assay: Western blot for MYC expression and PARP cleavage after JQ1, KMS12PE; details: 400 nM JQ1 for 24 hours, compared with untreated cells, FIG. 9
Description: as §5, §6

[7] = test system: PARP cleavage in PMDC05 cells; assay: Western blot for PARP cleavage after JQ1, PMDC05; details: PMDC05, JQ1 for 24 hours, FIG. 9
Description: as §5, §6

[8] = test system: PARP cleavage in K562 cells; assay: Western blot for PARP cleavage after JQ1, K562; details: K562, JQ1 for 24 hours, FIG. 9
Description: as §5, §6

[9] = inhibitor added at a high concentration

Cc1sc2c(c1C)C(c1ccc(Cl)cc1)=N[C@@H](CC(N)=O)c1nnc(C)n1-2 [CPI203]
survival rate of the CAL-1 cell line ([1]; FIG. 6): sharply decreased
survival rate of PMDC05 [2, 9]: high survival rate

COc1cc2c(cc1-c1c(C)noc1C)ncc1[nH]c(=O)n([C@H](C)c3ccccn3)c12 [I-BET151]
survival rate of the CAL-1 cell line ([1]; FIG. 6): sharply decreased
survival rate of PMDC05 [2, 9]: high survival rate

Cc1sc2c(c1C)C(c1ccc(Cl)cc1)=N[C@@H](CC(=O)OC(C)(C)C)c1nnc(C)n1-2 [JQ1]
concentration above which the survival rate of CAL-1 was rapidly decreased ([1]; CAL-1, 48 hours after addition, 6.25 nM to 6400 nM, FIG. 6): exceeded 150 nM
survival rate of PMDC05 ([2]; JQ1 added at a high concentration of 1000 nM or more): high survival rate
survival rate of K562 [3]: high survival rate
ratio of MYC-positive cells ([4]; CAL-1, 400 nM JQ1, 6 hours later): ~60%
ratio of MYC-positive cells ([4]; CAL-1, 400 nM JQ1, 24 hours later): ~15%
ratio of MYC-positive cells ([4]; CAL-1, 400 nM JQ1, 48 hours later): ~0%
ratio of MYC-positive cells ([4]; CAL-1, 400 nM JQ1, at the time of JQ1 addition (0 hours)): approximately 95%
MYC expression (Western blot) [5]: markedly decreased
expression of cleaved-PARP (index for cell death by apoptosis) [5]: increased
MYC expression (Western blot) [6]: markedly decreased
expression of cleaved-PARP (index for cell death by apoptosis) [6]: increased
increased PARP cleavage [7]: not observed
increased PARP cleavage [8]: not observed

Cc1sc2c(c1C)C(c1ccc(Cl)cc1)=N[C@@H](CC(=O)Nc1ccc(O)cc1)c1nnc(C)n1-2 [OTX015]
survival rate of the CAL-1 cell line ([1]; FIG. 6): sharply decreased
survival rate of PMDC05 [2, 9]: high survival rate

COc1ccccc1S(=O)(=O)Nc1ccc2c(c1)CN(C)C(=O)N2 [PFI-1]
survival rate of the CAL-1 cell line ([1]; FIG. 6): sharply decreased
survival rate of PMDC05 [2, 9]: high survival rate

COc1cc(Nc2ncc3c(n2)-c2ccc(Cl)cc2C(c2c(F)cccc2OC)=NC3)ccc1C(=O)O [alisertib]
growth suppressive or inhibitory effect on CAL-1 compared with PMDC05 cells ([1]; 1 nM to 10000 nM, 48 hours, FIG. 10): higher growth suppressive or inhibitory effect
growth suppression of BPDCN cell lines that exhibited MYC expression ([1]; summary statement in the description): effective
